Assay results as given in patent US20240124504A1, “AROMATIC HETEROCYCLIC COMPOUND, AND PHARMACEUTICAL COMPOSITION AND APPLICATION THEREOF” (GT APEIRON THERAPEUTICS LIMITED, priority 2020, published 2024).
pIC50: −log10 of the molar value.

How the values were obtained:
[1] = Caco-2 membrane permeability and efflux rate; format: in vitro ADME; settings: human, Caco-2, Caco-2, 5 μM
Description: The recovered Caco-2 cell suspension was seeded into a […] plate and cultured for 14-18 days. After being cultured for 14 days, the cells were fused and differentiated to be ready for a transport experiment. The Caco-2 cell plate was taken out from the incubator. Stock solutions of a to-be-tested compound and a control compound were formulated with DMSO and diluted with an HBSS (10 mM HEPES, pH 7.4) buffer to a final concentration of 5 μM. A test compound solution and a control drug solution were added to each well (top end) of an insert culture plate, and the HBSS (10 mM HEPES, pH 7.4) buffer was added to each well of a test compound receiving plate (basal end). When measuring the transport rate of the compound from the basal end to the top end, the test compound solution and the control drug solution were added to each well of the receiving plate (basal end), the HBSS (10 mM HEPES, pH 7.4) buffer solution was added to each well (top end) of the insert culture plate for the test compound solution, and incubation was carried out for 2 hours in a CO2 incubator at 37° C. After the transport experiment was completed, vortexing was carried out for 10 minutes at 1000 rpm. After sample quenching at each time point, LC/MS/MS analysis was carried out. A fluorescence value was measured after a two-hour transport experiment, a lucifer yellow solution was added in a transwell chamber (top end), a transport buffer solution was added in the basal end, and incubation was carried out for 30 minutes in the CO2 incubator at 37° C. The solution was taken out directly from the top end and the basal end (using basolateral wells) and transferred to a new 96-well plate. A cell fluorescence value was measured by a microplate reader (to detect membrane integrity), an excitation wavelength was […], and an emission wavelength was […]. All data were calculated by using Microsoft Excel, and a peak area was calculated according to chromatograms. An apparent permeability coefficient (Papp, unit: 10-6, cm/s) and an efflux rate (ER) of the compounds in Caco-2 cells were calculated by the specific concentrations of a receiving end and an administering end.

[2] = molecular target: CDK9/cyclinT1 complex (Homo sapiens, UniProt P50750); test: In-vitro enzymatic inhibitory activity testing, CDK9 inhibition assay (Caliper EZ Reader II); format: biochemical; settings: CDK9/cyclinT1 8 nM, 180 min at 27° C.
CDK9/cyclinT1 complex, sequence (P50750 whole entry, species assumed): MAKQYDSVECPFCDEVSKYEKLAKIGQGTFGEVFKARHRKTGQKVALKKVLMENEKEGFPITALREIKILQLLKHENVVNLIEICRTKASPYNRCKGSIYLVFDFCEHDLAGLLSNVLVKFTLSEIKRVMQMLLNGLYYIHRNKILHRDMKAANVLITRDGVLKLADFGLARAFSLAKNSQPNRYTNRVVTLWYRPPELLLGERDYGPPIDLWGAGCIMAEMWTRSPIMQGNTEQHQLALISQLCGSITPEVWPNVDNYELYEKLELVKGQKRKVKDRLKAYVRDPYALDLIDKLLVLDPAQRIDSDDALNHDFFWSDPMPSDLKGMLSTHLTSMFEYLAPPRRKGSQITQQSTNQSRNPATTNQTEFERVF
CDK9/cyclinT1 complex, sequence (O60563 whole entry partner, species assumed): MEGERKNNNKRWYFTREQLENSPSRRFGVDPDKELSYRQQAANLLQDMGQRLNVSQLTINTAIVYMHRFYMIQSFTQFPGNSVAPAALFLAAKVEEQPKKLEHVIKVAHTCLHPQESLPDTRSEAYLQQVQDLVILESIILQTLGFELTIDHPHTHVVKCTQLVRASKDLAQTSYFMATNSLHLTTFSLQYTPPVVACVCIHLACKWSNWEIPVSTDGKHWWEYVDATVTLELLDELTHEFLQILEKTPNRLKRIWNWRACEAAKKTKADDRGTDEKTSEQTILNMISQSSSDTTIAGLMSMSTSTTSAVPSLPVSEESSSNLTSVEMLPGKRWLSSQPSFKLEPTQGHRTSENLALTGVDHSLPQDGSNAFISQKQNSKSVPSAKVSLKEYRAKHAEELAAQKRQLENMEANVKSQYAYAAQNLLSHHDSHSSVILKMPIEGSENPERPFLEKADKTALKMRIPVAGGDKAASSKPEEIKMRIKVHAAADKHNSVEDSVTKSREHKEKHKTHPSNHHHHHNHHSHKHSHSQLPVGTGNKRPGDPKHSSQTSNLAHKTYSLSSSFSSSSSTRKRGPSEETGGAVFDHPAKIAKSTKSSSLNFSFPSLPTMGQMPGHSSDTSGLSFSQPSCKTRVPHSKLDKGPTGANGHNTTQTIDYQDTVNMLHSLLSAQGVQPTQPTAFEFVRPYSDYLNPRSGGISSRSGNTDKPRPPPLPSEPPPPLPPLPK
Outline: (§1)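 Enzyme preincubated 10 min with compound, then peptide substrate plus ATP added in 80 mM MES pH 6.5, 10 mM MgCl2 buffer; 180 min at 27 °C, stopped with EDTA.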

[3] = molecular target: T1, CDK12 (aa686-1082)/cyclinK complex (Homo sapiens, UniProt Q9NYV4); test: In-vitro enzymatic inhibitory activity testing, CDK12 inhibition assay (Caliper EZ Reader II); format: biochemical; settings: CDK12/cyclinK 50 nM, 180 min at 27° C.; read-out: CDK12 IC50
T1 construct: A CDK12 (aa686-1082)/cyclinK complex (50 nM)
T1 sequence (Q9NYV4 686-1082, species assumed): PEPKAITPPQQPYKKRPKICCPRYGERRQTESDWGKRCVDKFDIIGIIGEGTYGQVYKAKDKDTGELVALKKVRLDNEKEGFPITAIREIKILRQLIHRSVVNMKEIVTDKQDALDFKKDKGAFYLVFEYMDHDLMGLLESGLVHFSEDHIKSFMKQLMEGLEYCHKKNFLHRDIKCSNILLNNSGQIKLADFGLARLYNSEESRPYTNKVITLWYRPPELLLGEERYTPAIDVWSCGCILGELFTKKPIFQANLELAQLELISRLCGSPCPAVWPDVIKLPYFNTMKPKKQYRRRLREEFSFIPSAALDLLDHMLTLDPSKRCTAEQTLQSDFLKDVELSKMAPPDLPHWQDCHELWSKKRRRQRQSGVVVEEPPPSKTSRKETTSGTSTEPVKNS
T1 sequence (O75909 whole entry partner, species assumed, the tested form may be a part): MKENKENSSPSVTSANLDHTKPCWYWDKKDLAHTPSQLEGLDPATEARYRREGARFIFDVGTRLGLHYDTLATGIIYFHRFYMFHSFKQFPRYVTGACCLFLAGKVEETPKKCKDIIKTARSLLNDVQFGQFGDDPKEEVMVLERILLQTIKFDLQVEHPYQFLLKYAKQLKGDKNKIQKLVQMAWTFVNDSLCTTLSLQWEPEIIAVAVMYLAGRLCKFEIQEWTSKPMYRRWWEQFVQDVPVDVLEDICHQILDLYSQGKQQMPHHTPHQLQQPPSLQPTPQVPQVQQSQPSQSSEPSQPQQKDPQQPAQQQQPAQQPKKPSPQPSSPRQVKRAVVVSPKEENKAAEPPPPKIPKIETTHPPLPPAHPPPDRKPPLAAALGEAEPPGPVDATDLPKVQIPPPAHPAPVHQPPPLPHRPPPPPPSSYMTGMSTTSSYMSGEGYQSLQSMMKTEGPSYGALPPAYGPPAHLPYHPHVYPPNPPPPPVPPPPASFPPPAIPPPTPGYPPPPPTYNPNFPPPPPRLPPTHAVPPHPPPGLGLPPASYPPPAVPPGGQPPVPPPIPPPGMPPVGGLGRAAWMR
Outline: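 Caliper EZ Reader II mobility-shift separation of 5-FAM-CDK9tide substrate (2 μM) from phosphoproduct, using 50 nM CDK12 (aa686-1082)/cyclinK in 80 mM MES pH 6.5, 10 mM MgCl2, 0.01% Tween 20, 50 ug/mL BSA. Compound pre-incubated 10 min with enzyme, then substrate/ATP added for 180 min at 27° C; EDTA stop. IC50 by nonlinear dose-response regression.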

[4] = system: ovarian cancer A2780; test: Cell biological activity detection (CyQuant, 72 hours), A2780; format: cell-based, human; settings: Homo sapiens, A2780, 72 h, A2780 cells, incubation for 72 hours
Outline: (§2)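 A2780 and HCC70 cells seeded at 2000/well in RPMI 1640 + 10% FBS, treated next day with 9-point compound dilutions (top 10 μM, 1:4; 0.2% DMSO) for 72 h at 37 °C. Cell number read by CyQuant Direct nucleic acid stain (ex 488 nm); IC50 from dose–response fit.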

[5] = molecular target: CDK7/cyclinH/MAT1 complex (Homo sapiens, UniProt P50613); test: In-vitro enzymatic inhibitory activity testing, CDK7 inhibition assay (Caliper EZ Reader II); format: biochemical; settings: CDK7/cyclinH/MAT1 6 nM, 180 min at 27° C.
CDK7/cyclinH/MAT1 complex, sequence (P50613 whole entry, species assumed): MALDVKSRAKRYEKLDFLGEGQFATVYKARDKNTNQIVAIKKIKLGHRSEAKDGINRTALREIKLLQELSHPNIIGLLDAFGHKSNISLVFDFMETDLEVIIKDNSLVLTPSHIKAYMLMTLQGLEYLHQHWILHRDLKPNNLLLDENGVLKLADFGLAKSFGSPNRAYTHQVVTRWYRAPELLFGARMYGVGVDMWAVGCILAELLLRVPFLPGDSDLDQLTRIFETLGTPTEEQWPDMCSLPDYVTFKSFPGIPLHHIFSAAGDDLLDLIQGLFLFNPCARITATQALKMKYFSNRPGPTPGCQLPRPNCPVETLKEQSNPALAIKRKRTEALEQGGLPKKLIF
CDK7/cyclinH/MAT1 complex, sequence (P51946 whole entry partner, species assumed): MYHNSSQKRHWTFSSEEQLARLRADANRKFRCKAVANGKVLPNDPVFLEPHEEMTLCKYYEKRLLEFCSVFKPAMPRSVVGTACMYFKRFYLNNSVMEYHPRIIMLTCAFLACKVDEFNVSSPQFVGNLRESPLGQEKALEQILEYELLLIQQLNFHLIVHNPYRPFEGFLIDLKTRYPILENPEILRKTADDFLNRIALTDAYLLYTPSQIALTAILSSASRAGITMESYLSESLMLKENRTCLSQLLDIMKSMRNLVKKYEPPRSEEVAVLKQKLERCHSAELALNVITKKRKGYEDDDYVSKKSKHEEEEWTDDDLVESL
CDK7/cyclinH/MAT1 complex, sequence (P51948 whole entry partner, species assumed): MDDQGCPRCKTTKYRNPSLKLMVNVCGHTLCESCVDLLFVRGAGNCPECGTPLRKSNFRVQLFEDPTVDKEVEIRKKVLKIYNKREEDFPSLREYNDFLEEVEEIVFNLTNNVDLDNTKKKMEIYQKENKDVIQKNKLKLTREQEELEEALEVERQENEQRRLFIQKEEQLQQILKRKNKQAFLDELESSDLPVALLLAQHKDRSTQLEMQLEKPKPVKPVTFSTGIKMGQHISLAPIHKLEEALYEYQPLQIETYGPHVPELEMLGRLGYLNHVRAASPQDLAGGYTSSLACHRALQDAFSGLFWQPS
Outline: as §1

[6] = system: human breast cancer cells HCC70; test: Cell biological activity detection (CyQuant, 72 hours), HCC70; format: cell-based; settings: Homo sapiens, HCC70, 72 h, incubation for 72 hours
Outline: as §2

[7] = molecular target: CDK2/cyclinE1 complex (Homo sapiens, UniProt P24941); test: In-vitro enzymatic inhibitory activity testing, CDK2 inhibition assay (Caliper EZ Reader II); format: biochemical; settings: CDK2/cyclinE1 0.5 nM, 180 min at 27° C.
Outline: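 CDK2/cyclinE1 (0.5 nM) phosphorylated 5-FAM-CDK7tide (2 μM) in MES buffer pH 6.5 with MgCl2, Tween 20 and BSA. Substrate and product were separated electrophoretically on a Caliper EZ Reader II. IC50 values came from nonlinear dose-response fits.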

Compound	Papp B→A at 2 h, 5 μM ([1]; basal end to top end)	efflux ratio at 2 h, 5 μM ([1]; read-out: ER (efflux rate))	Papp A→B at 2 h, 5 μM ([1]; top end to basal end)	pIC50 [2]	pIC50 [3]	pIC50 [4]	pIC50 [5]	pIC50 [6]	pIC50 [7]
CP(C)(=O)c1cccc2c(-c3nc(N[C@H]4CCCNC4)ncc3C(F)(F)F)c[nH]c12 [A control compound WO2018013867 (353), reference compound]	15.9 ×10⁻⁶ cm/s	70.7	0.23 ×10⁻⁶ cm/s	–	–	–	–	–	–
CC1(C)COCC(Nc2ncc(C(F)(F)F)c(-c3c[nH]c4c(P(C)(C)=O)c(C#N)ccc34)n2)CN1 (stereo not drawn) [Compound 76, 3-(2-((3,3-dimethyl-1,4-oxazepan-6-yl)amino)-5-(trifluoromethyl)pyrimidin-4-yl)-7-(dimethylphosphoryl)-1H-indole-6-carbonitrile]	–	–	–	< 4.30	< 4.30	6.70 to 7.70	6.70 to 7.70	6.70 to 7.70	< 4.30
CP(C)(=O)c1cccc2c(-c3nc(N[C@H]4CCCC[C@@H]4O)ncc3C(F)(F)F)c[nH]c12 [Compound 165, (3-(2-(((1S,2S)-2-hydroxycyclohexyl)amino)-5-(trifluoromethyl)pyrimidin-4-yl)-1H-indole-7-yl)dimethylphosphine oxide]	–	–	–	< 4.30	< 4.30	6.70 to 7.70	6.70 to 7.70	6.70 to 7.70	4.30 to 5.30
CC(C)C(O)CNc1ncc(C(F)(F)F)c(-c2c[nH]c3c(P(C)(C)=O)cccc23)n1 (stereo not drawn) [Compound 162, (3-(2-((2-hydroxy-3-methylbutyl)amino)-5-(trifluoromethyl)pyrimidin-4-yl)-1H-indole-7-yl)dimethylphosphine oxide]	–	–	–	< 4.30	< 4.30	6.70 to 7.70	6.70 to 7.70	5.30 to 6.70	4.30 to 5.30
CC(C)(O)CNc1ncc(C(F)(F)F)c(-c2c[nH]c3c(P(C)(C)=O)cccc23)n1 [Compound 95, (3-(2-((2-hydroxy-2-methylpropyl)amino)-5-(trifluoromethyl)pyrimidin-4-yl)-1H-indole-7-yl)dimethylphosphine oxide]	–	–	–	< 4.30	< 4.30	6.70 to 7.70	> 7.70	6.70 to 7.70	4.30 to 5.30
